Results: patent US20060025471A1, “Xanthenyl cubane analogs with activity at the metabotropic glutamate receptors” (priority 2002, published 2006)

Tests used:
[1] = tested on: Cultured hippocampal pyramindal neurons; assay: In vitro anoxia study, neuronal cell death; type: cell-based; conditions: 30 minutes anoxia; counts 24 hours post anoxic exposure
From the text: The ability of a candidate compound to inhibit neuronal cell death can be examined using an in vitro anoxia study. […] A candidate compound can be administered to the neuronal cell culture at various time points prior to exposure to the anoxic condition to examine the prophylactic activity of the compound or during or after exposure to the anoxic condition to examine therapeutic activity of the compound. Suitable negative controls include, for example, buffer in place of the candidate compound.
The neuroprotective effects of a thioxanthenyl cubane (Compound 6) were examined using an in vitro anoxia study. Cultured hippocampal pyramindal neurons were exposed to anoxic conditions (oxygen free buffer) for 30 minutes. Twenty-four hours post anoxic exposure cell counts were conducted manually.

[2] = tested on: rat global ischemia model; assay: Rat global ischemia model; type: in vivo; conditions: 1 mg/kg intra-peritoneal post ischemic insult
From the text: The neuroprotective effects of a candidate compound can also be evaluated in a number of in vivo animal models including, the rat global ischemia model. Briefly, two of the four cerebral arteries are permanently occluded and surgical silk is loosely placed around the remaining two cerebral arteries. Temporary tightening of the surgical silk leads to 4 vessel occlusion and temporary global ischemia. At various time points after ischemic insult the brain can be removed and examined for ischemic injury.
The neuroprotective effects of a thioxanthenyl cubane (Compound 6) were examined in vivo using the rat global ischemia model. Briefly, two of the four cerebral arteries are permanently occluded and surgical silk is loosely placed around the remaining two cerebral arteries. Temporary tightening of the surgical silk leads to 4 vessel occlusion and temporary global ischemia. Seven days post ischemic insult, the brain is removed and the CA1 region of the hippocampus, a region very suspectible to ischemic damage, is examined.

focal ischemia model = assay: Starch microsphere infusion focal ischemia model; type: in vivo, rat
Method: Alternatively, the starch microsphere infusion focal ischemia model can be used. Briefly, starch microspheres are injected unilaterally into one of the carotid arteries. Blood flow is temporarily occluded on the injected side for approximately 30 minutes. Reperfusion occurs after the initial starch clot is resolved. At various time points after ischemic insult the brain can be removed and examined for ischemic injury.
The compounds of the present invention have been evaluated in a rat model of focal ischemia which is similar to that seen in strokes in humans. Briefly, starch microspheres are injected unilaterally into one of the carotid arteries. Blood flow is temporarily occluded on the injected side for approximately 30 minutes. Reperfusion occurs after the initial starch clot is resolved. The test compound is administered either prophylactically before vessel occlusion or therapeutically post vessel occlusion.
The neuroprotective effects of a thioxanthenyl cubane (Compound 6) were further examined using a starch microsphere infusion focal ischemia model. Briefly, starch microspheres are injected unilaterally into one of the carotid arteries. Blood flow is temporarily occluded on the injected side for approximately 30 minutes. Reperfusion occurs after the initial starch clot is resolved.
Compound 6 was intra-peritoneally administered at dosages of 0.1, 1.0, and 10 mg/kg either prophylactically or therapeutically. The prophylactic dose schedule included a dose of Compound 6 administered 30 minutes prior to ischemic insult followed by doses at 30 minutes and 3 hours post insult. For therapeutic administration, Compound 6 was administered 3 hours post insult only. […] In addition to providing substantial neuroprotection, Compound 6 reduced the incidence of seizures following ischemic insult in a dose-dependent manner.

fear potentiated startle = assay: Fear potentiated startle model; type: in vivo, rats
From the text: The fear potentiated startle model permits measurement of learned fear of a stimulus that has been paired with repeated foot shocks. The effect of a candidate compound on fear potentiated startle can be compared with a known standard such as diazepam and a negative control (such as buffer only). The fear potentiated startle test can be conducted at various time points following administration of a candidate compound.
The anxiolytic properties of a thioxanthenyl cubane (Compound 6) were examined using the fear potentiated startle model. This model permits measurement of learned fear of a stimulus that has been paired with repeated foot shocks. The effect of Compound 6 on fear potentiated startle was compared with the known standard, diazepam. All tests were run 30 min after intraperitoneal drug administration. Compound 6 was administered at 1.0, 3.0, 10 and 15 mg/kg in rats.
The oral bioavailability and efficacy of a thioxanthenyl cubane (Compound 6) was studied using the fear potentiated startle model. Compound 6 was administered by gavage at a dose of 12 mg/kg. Following a 90 minute period allowed for drug absorption, the oral efficacy was examined using the fear potentiated startle model. As shown in FIG. 8 oral Compound 6 was effective in reducing the fear potentiated startle model.
The onset and duration of a thioxanthenyl cubane (Compound 6) was studied using the fear potentiated startle model. Thioxanthenyl cubane was administered by gavage at a dose of 15 mg/kg. The effect of oral Compound 6 on fear potentiated startle was examined at 30 minutes, 1, 2, 4, 6 and 8 hours post drug administration.

fear induced freezing = assay: Fear induced freezing model; type: in vivo, rat; conditions: diazepam at 3 mg/kg; for reduction in freezing, context alone: environment alone; for reduction in freezing, context plus tone: environment with conditioning sound
From the text: The anxiolytic properties of a candidate compound can also be examined using the fear induced freezing model. Briefly, this test relies on the induction of a well known effect in rats when they are challenged. The rat is subjected to a mild shock associated with a sound which results in the animal becoming very still when expecting that shock. The effect of a candidate compound on fear induced freezing can be compared with a known standard such as diazepam and a negative control (such as buffer only). The fear induced freezing test can be conducted at various time points following administration of the candidate compound.
The anxiolytic properties of a thioxanthenyl cubane (Compound 6) were also examined using the fear induced freezing model. Briefly, this test relies on the induction of a well known effect in rats when they are challenged. The rat is subjected to a mild shock associated with a sound which results in the animal becoming very still when expecting that shock.
The animal is placed in its home cage for acclimatization before being placed back in the test environment in the presence or absence of test compound. The reduction in freezing is used as a measure of anxiolysis. […] The second paradigm (context plus tone) produces a larger and more difficult to overcome anxiety.

social interaction = assay: Social interaction studies; type: in vivo, rat
Method: The effect of a candidate compound on social interaction can also be examined in rodents. Briefly, social interaction can be measured as follows: a strange intruder is introduced into the cage of an acclimatized treated rat and the number of times the rat either bites (# bites) or wrestles (# pins) the intruder is determined. The effect of a candidate compound on social interaction can be compared with a known standard such as diazepam and a negative control (such as buffer only). The social interaction test can be conducted at various time points following administration of the candidate compound.
The effect of a thioxanthenyl cubane (Compound 6) on social interaction was examined in rodents. Briefly, social interaction is measured as follows: a strange intruder is introduced into the cage of an acclimatized treated rat and the number of times the rat either bites (# bites) or wrestles (# pins) the intruder is determined. Compound 6 was administered at three doses and compared to saline and diazepam at 2 mg/kg.

elevated plus maze = assay: Elevated plus maze test; type: in vivo, rat
From the text: The anxiolytic properties of candidate compounds can be further evaluated using the elevated plus maze test. This test is dependent on the predisposition of rodents to remain in the dark and offers the choice between dark areas of the maze and the opportunity to explore lighted areas. The effect of a candidate compound on the elevated plus maze test can be compared with a known standard such as diazepam and a negative control (such as buffer only). The elevated maze plus test can be conducted at various time points following administration of the candidate compound.
To further examine the anxiolytic properties of a thioxanthenyl cubane (Compound 6), the elevated plus maze test was conducted. The elevated plus maze test is sensitive to benzodiazepine type anxiolytics while other anxiolytics such as the serotonin reuptake inhibitors (SSRIs) show poor efficacy in this test. This test is dependent on the predisposition of rodents to remain in the dark and offers the choice between dark areas of the maze and the opportunity to explore lighted areas.

[3] = Functional observational battery (side effect profile); type: in vivo
From the text: The side effect profile for an intra-peritoneally administered thioxanthenyl cubane (Compound 6) was examined and compared to diazepam using functional observational battery which is a series of observational markers designed to indicate level of impairment. The greater the functional observational battery score, the greater the impairment.

[4] = Asymmetric grid test (impairment of motor function); type: in vivo; conditions: 4 mg/kg; compared to the null experiment
Method: To further examine the side effect of profile of Compound 6 the assymmetric grid test was conducted to measure impairment of motor function. Briefly, in the assymetric grid test the animal is placed on one side of a grid pattern, designed to challenge the animals motor function. On the other side of the grid is the animal's home cage or a reward. As the animal enters the grid it is monitored for mistakes by a camera placed horizontally in line with the grid. The camera records the number of forelimb and hindlimb intrusions through the grid and the higher the number, the greater the impairment.

NC(CC1c2ccccc2Sc2ccccc21)(C(=O)O)C12C3C4C1C1C2C3C41C(=O)O (stereo not shown) [Compound 6, 4-carboxycubane-1-thioxanthenyl-1-glycine]
number of living cells in anoxic cultures relative to control anoxic cultures [1]: 2 to 3 times
ischemic damage to the CA1 region of the hippocampus vs untreated ischemic animals ([2]; 7 days): reduction in ischemic damage
reduction in cell death ([2]; 7 days after the procedure): greater than 50%
neuroprotection in treated animals (focal ischemia model; 0.1, 1.0, 10 mg/kg intra-peritoneal, no obvious dose dependence): Neuroprotection was observed in all animals
ischemic damage to the hippocampus, especially retrospenial and piriform cortices, vs untreated ischemic animals (focal ischemia model; 0.1, 1.0, 10 mg/kg intra-peritoneal, prophylactic or therapeutic schedule): reduction in ischemic damage
incidence of seizures following ischemic insult (focal ischemia model; 0.1-10 mg/kg intra-peritoneal, dose-dependent): reduced
difference in neuronal cell number between ipsilateral and contralateral sides of the CA1 region (focal ischemia model; prophylactic or therapeutic treatment groups, 0.1, 1.0, 10 mg/kg): no significant difference
oral efficacy on fear potentiated startle (fear potentiated startle; gavage 12 mg/kg, 90 minute absorption period): effective
onset of effect on fear potentiated startle (fear potentiated startle; gavage 15 mg/kg): 30 min
time of maximum effect on fear potentiated startle (fear potentiated startle; gavage 15 mg/kg): 4 h
time of return of effect to base line (fear potentiated startle; gavage 15 mg/kg): 8 h
effect on fear potentiated startle (fear potentiated startle; intraperitoneal 1.0, 3.0, 10 and 15 mg/kg, 30 min after administration): dose dependent reduction
effect on fear potentiated startle at the highest dose (fear potentiated startle; intraperitoneal, highest dose (15 mg/kg)): tendency to reverse the effect
dose of apparent maximum reduction in fear potentiated startle (fear potentiated startle; intraperitoneal, 30 min after administration): 3 mg/kg
reduction in freezing, context alone (fear induced freezing): effective in both scenarios
reduction in freezing, context plus tone (fear induced freezing): effective in both scenarios
number of bites, compared with diazepam 2 mg/kg (social interaction; 10 mg/kg): equal reduction
number of pins, compared with diazepam 2 mg/kg (social interaction; 10 mg/kg): equal reduction
time spent in the exposed (open, light) area of the maze (elevated plus maze; 1 mg/kg): only a tendency
impairment, functional observational battery score ([3]; in vivo): this level of impairment was not observed

CN1C(=O)CN=C(c2ccccc2)c2cc(Cl)ccc21 [diazepam, reference compound]
effective oral dose level in fear potentiated startle (fear potentiated startle; oral dose response (FIG. 9)): 7 mg/kg
reduction in freezing, context alone (fear induced freezing): effective
reduction in freezing, context plus tone (fear induced freezing): only effective in the less stringent first paradigm
number of bites (social interaction; 2 mg/kg): clear reduction
number of pins (social interaction; 2 mg/kg): clear reduction
time spent in the exposed (open, light) area of the maze (elevated plus maze; 2 mg/kg): clear increase
impairment, functional observational battery score ([3]; intra-peritoneal, high doses (Compound 6 very high doses)): large degree of impairment
number of forelimb and hindlimb mistakes [4]: increases significantly
